Legend:
HSV-1 K26GFP = assay: capsid entry, confocal imaging, HaCat cells; type: cell-based; settings: 1 h post-temperature shift; CIMSS 10 μM, antibody 2 μg/ml
Protocol: (§1) To quantify viral entry, cells were synchronously infected by allowing virus to bind to cells at 4°C for 4 h, washed, and then transferred to 37 °C. CIMSS or control DMSO was added at the time of temperature shift. At indicated times post-temperature shift, the cells were treated with a low pH buffer to inactivate virus that had not penetrated, washed, overlaid with medium containing methyl cellulose and viral plaques were counted at 48 h. Entry was also assessed by immunoblotting nuclear extracts for VP16. […] Nuclear extracts were prepared after 1 h and analyzed by western blot with antibodies targeting VP16, histone H1 and golgin-97[5]. The non-nuclear fraction was also probed for golgin-97 as a positive control. […] After 1 or 4 h of incubation, the cells were fixed. Plasma membranes were stained using Image -IT^TM LIVE Plasma Membrane kit and nuclei were stained with DAPI (Thermo Fisher Scientific, Cat 134406). The percentage of GFP + nuclei was determined by counting ~200 cells over 3–4 fields. Images were obtained with Leica SP8 microscope (objective 63 × 1.4); xz images were captured with optical slice 0.6 µm, 25–30 slices per image.

PAK3 = biological target: T1, PAK3 (Homo sapiens, UniProt O75914); assay: HotSpot kinase assay; type: biochemical; settings: read-out: % Enzyme Activity (relative to DMSO controls)
T1 construct: purchased Reaction Biology Corporation
T1 sequence (O75914 whole entry): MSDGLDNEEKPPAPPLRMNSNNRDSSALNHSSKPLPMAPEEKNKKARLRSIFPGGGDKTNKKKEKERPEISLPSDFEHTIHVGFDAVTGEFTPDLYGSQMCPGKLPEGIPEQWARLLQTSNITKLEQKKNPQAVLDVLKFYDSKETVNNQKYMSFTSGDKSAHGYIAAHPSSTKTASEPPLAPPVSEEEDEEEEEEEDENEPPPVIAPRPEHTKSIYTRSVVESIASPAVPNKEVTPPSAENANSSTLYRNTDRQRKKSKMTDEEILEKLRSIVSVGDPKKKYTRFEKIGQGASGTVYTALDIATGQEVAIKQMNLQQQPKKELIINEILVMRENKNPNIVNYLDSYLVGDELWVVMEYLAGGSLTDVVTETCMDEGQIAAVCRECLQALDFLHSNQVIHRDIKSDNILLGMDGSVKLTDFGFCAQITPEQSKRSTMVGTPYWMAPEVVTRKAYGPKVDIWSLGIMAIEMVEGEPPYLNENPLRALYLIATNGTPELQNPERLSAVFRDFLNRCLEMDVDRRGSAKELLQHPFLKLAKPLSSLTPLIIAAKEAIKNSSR

CDK2/CYCLIN E = biological target: T2, CDK2/CYCLIN E (Homo sapiens, UniProt P24941); assay: HotSpot kinase assay; type: biochemical; settings: read-out: % Enzyme Activity (relative to DMSO controls)
T2 construct: purchased Reaction Biology Corporation

ALK5/TGFBR1 = biological target: T3, ALK5/TGFBR1 (Homo sapiens, UniProt P36897); assay: HotSpot kinase assay; type: biochemical; settings: read-out: % Enzyme Activity (relative to DMSO controls)
T3 construct: purchased Reaction Biology Corporation

HSV-2(G) = assay: nuclear transport of VP-16 (immunoblot of nuclear extracts); type: cell-based; settings: HaCat and primary vaginal cells, 1 h; CIMSS 10 μM, antibody 2 μg/ml
Protocol: as §1

CLK4 = biological target: T4, CLK4 (Homo sapiens, UniProt Q9HAZ1); assay: HotSpot kinase assay; type: biochemical; settings: read-out: % Enzyme Activity (relative to DMSO controls)
T4 construct: purchased Reaction Biology Corporation

TESK2 = biological target: T5, TESK2 (Homo sapiens, UniProt Q96S53); assay: HotSpot kinase assay; type: biochemical; settings: read-out: % Enzyme Activity (relative to DMSO controls)
T5 construct: purchased Reaction Biology Corporation

MYLK4 = biological target: T6, MYLK4 (Homo sapiens, UniProt Q86YV6); assay: HotSpot kinase assay; type: biochemical; settings: read-out: % Enzyme Activity (relative to DMSO controls)
T6 construct: purchased Reaction Biology Corporation

FLT3 = biological target: T7, FLT3 (Homo sapiens, UniProt P36888); assay: HotSpot kinase assay; type: biochemical; settings: read-out: % Enzyme Activity (relative to DMSO controls)
T7 construct: purchased Reaction Biology Corporation

MRCKb/CDC42BPB = biological target: T8, MRCKb/CDC42BPB (Homo sapiens, UniProt Q9Y5S2); assay: HotSpot kinase assay; type: biochemical; settings: read-out: % Enzyme Activity (relative to DMSO controls)
T8 construct: purchased Reaction Biology Corporation

EPHA2 = biological target: T9, EPHA2 (Homo sapiens, UniProt P29317); assay: HotSpot kinase assay; type: biochemical; settings: read-out: % Enzyme Activity (relative to DMSO controls)
T9 construct: purchased Reaction Biology Corporation

HCK = biological target: T10, HCK (Homo sapiens, UniProt P08631); assay: HotSpot kinase assay; type: biochemical; settings: read-out: % Enzyme Activity (relative to DMSO controls)
T10 construct: purchased Reaction Biology Corporation

ALK6/BMPR1B = biological target: T11, ALK6/BMPR1B (Homo sapiens, UniProt O00238); assay: HotSpot kinase assay; type: biochemical; settings: read-out: % Enzyme Activity (relative to DMSO controls)
T11 construct: purchased Reaction Biology Corporation
T11 sequence (O00238 14-502): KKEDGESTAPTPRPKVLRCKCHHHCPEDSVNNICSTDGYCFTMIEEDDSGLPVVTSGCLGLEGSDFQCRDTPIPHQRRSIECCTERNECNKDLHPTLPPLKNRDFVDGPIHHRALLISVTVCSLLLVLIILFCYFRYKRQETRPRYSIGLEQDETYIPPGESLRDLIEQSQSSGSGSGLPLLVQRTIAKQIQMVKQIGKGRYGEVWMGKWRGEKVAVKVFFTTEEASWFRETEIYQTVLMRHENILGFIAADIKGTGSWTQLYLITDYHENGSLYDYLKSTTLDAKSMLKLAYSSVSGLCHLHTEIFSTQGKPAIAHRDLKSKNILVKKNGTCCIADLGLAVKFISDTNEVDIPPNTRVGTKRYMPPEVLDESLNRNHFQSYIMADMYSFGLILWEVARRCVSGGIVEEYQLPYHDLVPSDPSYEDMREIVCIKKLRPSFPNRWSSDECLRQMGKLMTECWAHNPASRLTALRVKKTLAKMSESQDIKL

CK1a1 = biological target: T12, CK1a1 (Homo sapiens, UniProt P48729); assay: HotSpot kinase assay; type: biochemical; settings: read-out: % Enzyme Activity (relative to DMSO controls)
T12 construct: purchased Reaction Biology Corporation

Akt (pAkt T308) = type: cell-based, monkey; settings: 10µM
MAK = biological target: T13, MAK (Homo sapiens, UniProt P20794); assay: HotSpot kinase assay; type: biochemical; settings: read-out: % Enzyme Activity (relative to DMSO controls)
T13 construct: purchased Reaction Biology Corporation

GSK3b = biological target: T14, GSK3b (Homo sapiens, UniProt P49841); assay: biochemical; settings: read-out: % Enzyme Activity (relative to DMSO controls)
T14 construct: purchased Reaction Biology Corporation

EEF2K = biological target: T15, EEF2K (Homo sapiens, UniProt O00418); assay: HotSpot kinase assay; type: biochemical; settings: read-out: % Enzyme Activity (relative to DMSO controls)
T15 construct: purchased Reaction Biology Corporation
T15 sequence (O00418 whole entry): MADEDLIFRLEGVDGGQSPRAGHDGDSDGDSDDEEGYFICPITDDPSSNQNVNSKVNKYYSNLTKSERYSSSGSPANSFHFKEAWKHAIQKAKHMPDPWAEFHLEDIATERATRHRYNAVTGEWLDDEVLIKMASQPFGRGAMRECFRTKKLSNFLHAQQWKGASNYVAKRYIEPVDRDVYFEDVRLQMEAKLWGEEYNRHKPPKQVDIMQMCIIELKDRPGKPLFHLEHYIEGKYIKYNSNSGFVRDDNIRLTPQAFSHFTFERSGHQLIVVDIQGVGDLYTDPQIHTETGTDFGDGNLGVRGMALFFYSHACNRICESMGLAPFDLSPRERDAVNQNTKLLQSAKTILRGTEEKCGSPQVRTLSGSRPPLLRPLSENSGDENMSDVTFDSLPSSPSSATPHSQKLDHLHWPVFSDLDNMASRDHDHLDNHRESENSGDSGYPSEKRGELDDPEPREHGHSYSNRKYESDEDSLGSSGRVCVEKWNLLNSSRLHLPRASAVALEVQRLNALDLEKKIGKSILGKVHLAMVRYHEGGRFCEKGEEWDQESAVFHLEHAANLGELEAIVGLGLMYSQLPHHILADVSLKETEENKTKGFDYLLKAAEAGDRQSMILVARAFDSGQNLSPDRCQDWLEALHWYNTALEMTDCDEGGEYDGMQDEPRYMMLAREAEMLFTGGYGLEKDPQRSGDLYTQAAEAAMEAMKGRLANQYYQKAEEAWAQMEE

EPHA4 = biological target: T16, EPHA4 (Homo sapiens, UniProt P54764); assay: HotSpot kinase assay; type: biochemical; settings: read-out: % Enzyme Activity (relative to DMSO controls)
T16 construct: purchased Reaction Biology Corporation

FLT1/VEGFR1 = biological target: T17, FLT1/VEGFR1 (Homo sapiens, UniProt P17948); assay: HotSpot kinase assay; type: biochemical; settings: read-out: % Enzyme Activity (relative to DMSO controls)
T17 construct: purchased Reaction Biology Corporation

MELK = biological target: T18, MELK (Homo sapiens, UniProt Q14680); assay: HotSpot kinase assay; type: biochemical; settings: read-out: % Enzyme Activity (relative to DMSO controls)
T18 construct: purchased Reaction Biology Corporation

ERBB2/HER2 = biological target: T19, ERBB2/HER2 (Homo sapiens, UniProt P04626); assay: biochemical; settings: read-out: % Enzyme Activity (relative to DMSO controls)
T19 construct: purchased Reaction Biology Corporation
T19 sequence (P04626 23-1255): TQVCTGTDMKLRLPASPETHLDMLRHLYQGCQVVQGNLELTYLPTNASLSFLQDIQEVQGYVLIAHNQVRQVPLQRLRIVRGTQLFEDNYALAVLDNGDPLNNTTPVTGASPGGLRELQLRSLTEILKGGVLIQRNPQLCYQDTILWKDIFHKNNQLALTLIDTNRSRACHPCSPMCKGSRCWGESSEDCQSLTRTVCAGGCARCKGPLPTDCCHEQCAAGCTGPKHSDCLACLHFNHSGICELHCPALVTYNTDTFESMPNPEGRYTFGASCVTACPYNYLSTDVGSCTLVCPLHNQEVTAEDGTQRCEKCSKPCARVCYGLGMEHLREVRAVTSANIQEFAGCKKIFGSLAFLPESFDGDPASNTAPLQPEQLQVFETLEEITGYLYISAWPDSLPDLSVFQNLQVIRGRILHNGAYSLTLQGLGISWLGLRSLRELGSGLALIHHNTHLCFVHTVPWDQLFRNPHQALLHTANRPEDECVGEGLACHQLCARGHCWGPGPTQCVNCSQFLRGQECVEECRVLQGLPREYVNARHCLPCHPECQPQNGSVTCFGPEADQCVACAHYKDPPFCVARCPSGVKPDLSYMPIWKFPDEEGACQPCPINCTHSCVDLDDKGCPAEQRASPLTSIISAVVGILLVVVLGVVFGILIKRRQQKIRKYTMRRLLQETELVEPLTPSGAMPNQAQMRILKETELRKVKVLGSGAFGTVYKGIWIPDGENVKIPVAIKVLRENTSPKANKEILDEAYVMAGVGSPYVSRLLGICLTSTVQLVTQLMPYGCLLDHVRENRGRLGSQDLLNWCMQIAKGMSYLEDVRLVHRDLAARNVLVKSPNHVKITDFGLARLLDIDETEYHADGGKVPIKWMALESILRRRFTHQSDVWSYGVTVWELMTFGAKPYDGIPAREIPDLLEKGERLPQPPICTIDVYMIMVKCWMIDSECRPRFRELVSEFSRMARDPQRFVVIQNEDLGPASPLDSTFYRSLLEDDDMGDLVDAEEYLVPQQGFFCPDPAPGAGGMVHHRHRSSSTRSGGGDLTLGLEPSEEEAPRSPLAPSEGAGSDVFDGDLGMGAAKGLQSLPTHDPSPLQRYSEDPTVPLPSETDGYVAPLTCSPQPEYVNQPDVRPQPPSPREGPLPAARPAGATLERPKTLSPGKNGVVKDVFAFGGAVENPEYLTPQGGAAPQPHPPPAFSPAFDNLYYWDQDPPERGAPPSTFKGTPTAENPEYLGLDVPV

AKT1 = biological target: T20, AKT1 (Homo sapiens, UniProt P31749); assay: biochemical
T20 construct: purchased Reaction Biology Corporation
T20 sequence (P31749 whole entry): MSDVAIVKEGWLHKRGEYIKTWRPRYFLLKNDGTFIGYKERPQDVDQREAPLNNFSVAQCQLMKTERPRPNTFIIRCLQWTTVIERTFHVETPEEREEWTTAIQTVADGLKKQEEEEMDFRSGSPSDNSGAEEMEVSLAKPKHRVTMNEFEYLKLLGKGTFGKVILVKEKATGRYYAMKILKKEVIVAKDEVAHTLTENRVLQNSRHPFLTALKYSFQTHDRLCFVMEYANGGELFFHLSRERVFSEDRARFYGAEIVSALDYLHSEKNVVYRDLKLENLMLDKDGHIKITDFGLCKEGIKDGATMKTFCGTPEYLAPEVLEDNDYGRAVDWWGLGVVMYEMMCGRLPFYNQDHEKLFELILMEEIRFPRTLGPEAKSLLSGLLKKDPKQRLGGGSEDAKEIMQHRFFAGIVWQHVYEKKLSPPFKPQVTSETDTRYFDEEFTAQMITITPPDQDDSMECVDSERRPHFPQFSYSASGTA

MSK1/RPS6KA5 = biological target: T21, MSK1/RPS6KA5 (Homo sapiens, UniProt O75582); assay: HotSpot kinase assay; type: biochemical; settings: read-out: % Enzyme Activity (relative to DMSO controls)
T21 construct: purchased Reaction Biology Corporation

PLSCR1 = type: cell-based, monkey; settings: 30 min; drugs 10 μM, immunoglobulins 10 μg/ml
[1] = test system: Primary vaginal epithelial cells; assay: cell proliferation and viability, ~50% confluent; settings: for cell proliferation and viability, odu as a percentage of the DMSO control: 120 h (Fig 1d source data)
[2] = cell proliferation and viability, ~50% confluent; settings: human, cell proliferation and viability, odu as a percentage of the DMSO control, 120 h (Fig 1d source data)
PLK2 = biological target: T22, PLK2 (Homo sapiens, UniProt Q9NYY3); assay: HotSpot kinase assay; type: biochemical; settings: read-out: % Enzyme Activity (relative to DMSO controls)
T22 construct: purchased Reaction Biology Corporation
T22 sequence (Q9NYY3 whole entry): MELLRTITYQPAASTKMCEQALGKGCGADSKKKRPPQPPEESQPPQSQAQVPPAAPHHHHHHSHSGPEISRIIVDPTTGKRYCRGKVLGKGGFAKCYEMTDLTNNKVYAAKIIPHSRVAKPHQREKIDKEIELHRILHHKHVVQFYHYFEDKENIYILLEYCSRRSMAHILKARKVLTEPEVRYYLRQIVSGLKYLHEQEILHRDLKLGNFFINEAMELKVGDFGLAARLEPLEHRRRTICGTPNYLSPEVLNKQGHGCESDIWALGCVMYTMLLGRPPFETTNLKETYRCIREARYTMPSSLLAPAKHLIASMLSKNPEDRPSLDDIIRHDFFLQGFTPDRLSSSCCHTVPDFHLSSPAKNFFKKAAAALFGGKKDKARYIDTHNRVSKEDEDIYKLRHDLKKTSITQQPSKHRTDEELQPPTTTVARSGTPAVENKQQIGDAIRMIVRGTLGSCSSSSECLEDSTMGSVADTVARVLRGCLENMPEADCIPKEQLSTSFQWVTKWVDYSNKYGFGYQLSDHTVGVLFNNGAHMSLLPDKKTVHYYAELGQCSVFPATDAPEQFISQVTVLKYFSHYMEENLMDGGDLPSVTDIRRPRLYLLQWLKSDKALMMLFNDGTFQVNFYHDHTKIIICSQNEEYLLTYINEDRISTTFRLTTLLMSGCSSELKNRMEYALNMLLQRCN

DCAMKL2 = biological target: T23, DCAMKL2 (Homo sapiens, UniProt Q8N568); assay: HotSpot kinase assay; type: biochemical; settings: read-out: % Enzyme Activity (relative to DMSO controls)
T23 construct: purchased Reaction Biology Corporation

MAPKAPK2 = biological target: T24, MAPKAPK2 (Homo sapiens, UniProt P49137); assay: HotSpot kinase assay; type: biochemical; settings: read-out: % Enzyme Activity (relative to DMSO controls)
T24 construct: purchased Reaction Biology Corporation

GRK1 = biological target: T25, GRK1 (Homo sapiens, UniProt Q15835); assay: HotSpot kinase assay; type: biochemical; settings: read-out: % Enzyme Activity (relative to DMSO controls)
T25 construct: purchased Reaction Biology Corporation
T25 sequence (Q15835 whole entry): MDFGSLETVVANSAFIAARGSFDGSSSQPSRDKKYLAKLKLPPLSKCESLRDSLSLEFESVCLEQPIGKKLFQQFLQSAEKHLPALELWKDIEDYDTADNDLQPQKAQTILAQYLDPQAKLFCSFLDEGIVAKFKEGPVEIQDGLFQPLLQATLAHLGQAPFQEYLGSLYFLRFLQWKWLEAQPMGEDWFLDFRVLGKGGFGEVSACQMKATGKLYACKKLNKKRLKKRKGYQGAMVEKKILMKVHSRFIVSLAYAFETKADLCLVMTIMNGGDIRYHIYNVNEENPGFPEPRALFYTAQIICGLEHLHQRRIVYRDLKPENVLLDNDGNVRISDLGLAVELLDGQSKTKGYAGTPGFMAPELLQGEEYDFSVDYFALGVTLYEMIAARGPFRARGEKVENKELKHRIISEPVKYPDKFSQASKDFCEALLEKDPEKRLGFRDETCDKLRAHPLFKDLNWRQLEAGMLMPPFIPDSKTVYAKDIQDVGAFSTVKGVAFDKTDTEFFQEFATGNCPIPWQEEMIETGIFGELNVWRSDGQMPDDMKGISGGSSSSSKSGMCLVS

MYLK3 = biological target: T26, MYLK3 (Homo sapiens, UniProt Q32MK0); assay: HotSpot kinase assay; type: biochemical; settings: read-out: % Enzyme Activity (relative to DMSO controls)
T26 construct: purchased Reaction Biology Corporation

MST2/STK3 = biological target: T27, MST2/STK3 (Homo sapiens, UniProt Q13188); assay: HotSpot kinase assay; type: biochemical; settings: read-out: % Enzyme Activity (relative to DMSO controls)
T27 construct: purchased Reaction Biology Corporation

PIM1 = biological target: T28, PIM1 (Homo sapiens, UniProt P11309); assay: HotSpot kinase assay; type: biochemical; settings: read-out: % Enzyme Activity (relative to DMSO controls)
T28 construct: purchased Reaction Biology Corporation
T28 sequence (P11309 whole entry): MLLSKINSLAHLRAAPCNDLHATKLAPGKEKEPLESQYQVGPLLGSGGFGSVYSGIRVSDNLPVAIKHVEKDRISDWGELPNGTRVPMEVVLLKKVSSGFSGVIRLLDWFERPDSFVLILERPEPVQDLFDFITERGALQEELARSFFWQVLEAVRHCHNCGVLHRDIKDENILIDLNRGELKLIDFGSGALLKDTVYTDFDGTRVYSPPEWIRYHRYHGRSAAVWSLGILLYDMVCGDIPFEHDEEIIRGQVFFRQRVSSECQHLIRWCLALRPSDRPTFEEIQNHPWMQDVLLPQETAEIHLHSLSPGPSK

With CO[C@@H]1[C@H](N(C)C(=O)CCC(=O)NCc2cn(CCCS(=O)(=O)O)nn2)C[C@H]2O[C@]1(C)n1c3ccccc3c3c4c(c5c6ccccc6n2c5c31)C(=O)NC4 [CIMSS] the “percentage of GFP + cells” value (HSV-1 K26GFP) was “significantly decreased”, the remaining activity at 10 µM (PAK3) was 6.48% and the remaining activity at 10 µM (CDK2/CYCLIN E) was 7.89%. The remaining activity at 10 µM (ALK5/TGFBR1) was 86.6%, the “nuclear transport of VP-16” value (HSV-2(G)) was “inhibited” and the remaining activity at 10 µM (CLK4) was 10.4%. It also gave a remaining activity at 10 µM (TESK2) of 91.2%, a remaining activity at 10 µM (MYLK4) of 6.48% and a remaining activity at 10 µM (FLT3) of 4.55%. It also gave a remaining activity at 10 µM (MRCKb/CDC42BPB) of 75.8%, a remaining activity at 10 µM (EPHA2) of 33.5% and a remaining activity at 10 µM (HCK) of 7.23%. The remaining activity at 10 µM (ALK6/BMPR1B) was 88.3%, the remaining activity at 10 µM (CK1a1) was 98.3% and the “extracellular phosphorylation of Akt” value (Akt (pAkt T308)) was “inhibited”. It also gave a remaining activity at 10 µM (MAK) of 13.2%, a remaining activity at 10 µM (GSK3b) of 2.85% and a remaining activity at 10 µM (EEF2K) of 99.5%. For the same compound, the remaining activity at 10 µM (EPHA4) was 30.5%, the remaining activity at 10 µM (FLT1/VEGFR1) was 2.92% and the remaining activity at 10 µM (MELK) was 1.43%. It also gave a remaining activity at 10 µM (ERBB2/HER2) of 35.9%, an IC50 (AKT1; Supplementary Table 1, read-out: IC50 (Molar concentration)) of 0.461 µM and a remaining activity at 10 µM (AKT1; read-out: % Enzyme Activity (relative to DMSO controls), 10µM) of 23.7%. The inhibition at 10 µM (AKT1; read-out: inhibition of Akt1) was > 75%, the remaining activity at 10 µM (MSK1/RPS6KA5) was 1.53% and the “Phosphorylation of PLSCR1” value (PLSCR1) was “preserved”. For the same compound, the “cell proliferation and viability, odu as a percentage of the DMSO control” value ([1]; 10 μM) was 99.5%, the “cell proliferation and viability, odu as a percentage of the DMSO control” value ([1]; 50 μM) was 91.8% and the cytotoxicity ([1]; 10 or 50 μM, up to 120 h) was “little or no cytotoxicity”. The viability at 120 h, 10 µM ([2]; 10 μM) was 102%, the viability at 120 h, 50 µM ([2]; 50 μM) was 93% and the remaining activity at 10 µM (PLK2) was 27.4%. It also gave a remaining activity at 10 µM (DCAMKL2) of 87.7%, a remaining activity at 10 µM (MAPKAPK2) of 69.9% and a remaining activity at 10 µM (GRK1) of 4.7%. For the same compound, the remaining activity at 10 µM (MYLK3) was 67.6%, the remaining activity at 10 µM (MST2/STK3) was 3.52% and the remaining activity at 10 µM (PIM1) was 0.88%.
